Results on 49 molecules are retold here after the PolyMetriX glass transition set.

As for `*/C=C/C1CC(*)C2C3CCC(C3)C12` (repeat unit), the glass transition temperature came out at 207.40 °C.

Take `*C(=S)Nc1ccc(Oc2ccc(NC(=S)N3C(=O)c4ccc(C(c5ccc6c(c5)C(=O)N(*)C6=O)(C(F)(F)F)C(F)(F)F)cc4C3=O)cc2)cc1` (repeat unit): the glass transition temperature amounted to 260.00 °C. With `*C1CCC(N2C(=O)c3ccc(-c4ccc5c(c4)C(=O)N(*)C5=O)cc3C2=O)CC1` (repeat unit) the figure was 360.00 °C. With `*C1CCC(N2C(=O)c3ccc(S(=O)(=O)c4ccc5c(c4)C(=O)N(*)C5=O)cc3C2=O)CC1` (repeat unit) the figure was 363.00 °C; with `*CC1CC2CC1C1CCC(CN3C(=O)c4ccc(C(c5ccc6c(c5)C(=O)N(*)C6=O)(C(F)(F)F)C(F)(F)F)cc4C3=O)C21` (repeat unit), 207.00 °C.

Take `*CC1CCCC(CN2C(=O)c3ccc(-c4ccc5c(c4)C(=O)N(*)C5=O)cc3C2=O)C1` (repeat unit): the glass transition temperature was determined as 234.00 °C. With `*CCCCCCCCCCCCN1C(=O)c2ccc(C(c3ccc4c(c3)C(=O)N(*)C4=O)(C(F)(F)F)C(F)(F)F)cc2C1=O` (repeat unit) the figure was 101.00 °C; with `*CCCCCCCN1C(=O)c2ccc(C(c3ccc4c(c3)C(=O)N(*)C4=O)(C(F)(F)F)C(F)(F)F)cc2C1=O` (repeat unit), 165.00 °C; with `*CCCCN1C(=O)c2ccc(C(c3ccc4c(c3)C(=O)N(*)C4=O)(C(F)(F)F)C(F)(F)F)cc2C1=O` (repeat unit), 190.00 °C.

Take `*CCN(CCN1C(=O)c2ccc(C(c3ccc4c(c3)C(=O)N(*)C4=O)(C(F)(F)F)C(F)(F)F)cc2C1=O)c1ccc(/N=N/c2ccc([N+](=O)[O-])cc2)cc1` (repeat unit): the glass transition temperature stood at 210.00 °C. With `*Oc1ccc(C(C)(C)c2ccc(Oc3cncc(*)n3)cc2)cc1` (repeat unit) the figure was 145.00 °C; with `*Oc1ccc(Oc2ccc(C(=O)c3cccc(C(=O)c4ccc(*)cc4)c3)cc2)cc1` (repeat unit), 148.00 °C; with `*Oc1cccc(S(=O)(=O)c2ccc(*)cc2)c1` (repeat unit), 175.00 °C. With `*Oc1ccccc1S(=O)(=O)c1ccc(*)cc1` (repeat unit) the figure was 221.00 °C. With `*Sc1ccc(Sc2ccc(Sc3ccc(P(=O)(c4ccccc4)c4ccc(*)cc4)cc3)cc2)cc1` (repeat unit) the figure was 175.00 °C. `*c1cc(N2C(=O)c3ccc(P(=O)(c4ccccc4)c4ccc5c(c4)C(=O)N(*)C5=O)cc3C2=O)cc(C(F)(F)F)c1` (repeat unit) had a glass transition temperature of 317.00 °C. `*c1ccc(-c2ccc(N3C(=O)c4ccc(S(=O)(=O)c5ccc6c(c5)C(=O)N(*)C6=O)cc4C3=O)cc2C(F)(F)F)c(C(F)(F)F)c1` (repeat unit) displayed a glass transition temperature of 320.00 °C. With `*c1ccc(C(c2ccccc2)c2ccc(N3C(=O)c4ccc(-c5ccc6c(c5)C(=O)N(*)C6=O)cc4C3=O)cc2)cc1` (repeat unit) the figure was 315.00 °C; with `*c1ccc(C(c2ccccc2)c2ccc(N3C(=O)c4ccc(S(=O)(=O)c5ccc6c(c5)C(=O)N(*)C6=O)cc4C3=O)cc2)cc1` (repeat unit), 305.00 °C. With `*c1ccc(C2(c3ccc(N4C(=O)c5ccc(-c6ccc7c(c6)C(=O)N(*)C7=O)cc5C4=O)cc3)c3ccccc3-c3ccccc32)cc1` (repeat unit) the figure was 388.00 °C. With `*c1ccc(Cc2ccc(N3C(=O)c4ccc([Si](C)(C)c5ccc6c(c5)C(=O)N(*)C6=O)cc4C3=O)cc2)cc1` (repeat unit) the figure was 280.00 °C; with `*c1ccc(N2C(=O)c3ccc(-c4ccc5c(c4)C(=O)N(c4ccc6[nH]c(*)nc6c4)C5=O)cc3C2=O)cc1` (repeat unit), 397.50 °C; with `*c1ccc(OCCCCCOc2ccc(N3C(=O)c4ccc(-c5cccc6c5C(=O)N(*)C6=O)cc4C3=O)cc2)cc1` (repeat unit), 208.00 °C.

On to `*c1ccc(Oc2cc3ccccc3cc2Oc2ccc(N3C(=O)c4ccc(-c5ccc6c(c5)C(=O)N(*)C6=O)cc4C3=O)cc2)cc1` (repeat unit), for which the glass transition temperature is 253.50 °C.

`*c1ccc(Oc2ccc(-c3ccc(Oc4ccc(N5C(=O)c6cccc(Oc7ccc(C(C)(C)c8ccc(Oc9cccc%10c9C(=O)N(*)C%10=O)cc8)cc7)c6C5=O)cc4)cc3)cc2)cc1` (repeat unit) yielded a glass transition temperature of 236.00 °C.

With `*c1ccc(Oc2ccc(C(=O)c3cccc(C(=O)c4ccc(Oc5ccc(N6C(=O)c7ccc(-c8ccc9c(c8)C(=O)N(*)C9=O)cc7C6=O)cc5)cc4)c3)cc2)cc1` (repeat unit), the glass transition temperature was 222.00 °C. With `*c1ccc(Oc2ccc(C(=O)c3cccc(C(=O)c4ccc(Oc5ccc(N6C(=O)c7ccc(Oc8ccc(Sc9ccc(Oc%10ccc%11c(c%10)C(=O)N(*)C%11=O)cc9)cc8)cc7C6=O)cc5)cc4)c3)cc2)cc1` (repeat unit) the figure was 192.00 °C; with `*c1ccc(Oc2ccc(C(=O)c3cccc(C(=O)c4ccc(Oc5ccc(N6C(=O)c7ccc([Si](C)(C)c8ccc9c(c8)C(=O)N(*)C9=O)cc7C6=O)cc5)cc4)c3)cc2)cc1` (repeat unit), 208.00 °C.

The molecule `*c1ccc(Oc2ccc(N3C(=O)c4ccc(C(c5ccc6c(c5)C(=O)N(c5ncc(*)s5)C6=O)(C(F)(F)F)C(F)(F)F)cc4C3=O)cc2)cc1` (repeat unit) came in with a glass transition temperature of 268.20 °C. With `*c1ccc(Oc2ccc(N3C(=O)c4ccc(S(=O)(=O)c5ccc6c(c5)C(=O)N(*)C6=O)cc4C3=O)cc2Br)c(Br)c1` (repeat unit) the figure was 281.00 °C; with `*c1ccc(Oc2ccccc2Oc2ccc(-n3c(=O)c4cc5c(=O)n(*)c(=O)c5cc4c3=O)cc2C(F)(F)F)c(C(F)(F)F)c1` (repeat unit), 277.00 °C. With `*c1ccc(S(=O)(=O)c2ccc(N3C(=O)C(C)C(SCCOCCSC4C(=O)N(c5ccc(S(=O)(=O)c6ccc(N7C(=O)CC(C)(SCCOCCSC8(C)CC(=O)N(*)C8=O)C7=O)cc6)cc5)C(=O)C4C)C3=O)cc2)cc1` (repeat unit), the glass transition temperature was 157.00 °C. With `*c1ccc(Sc2ccc(-n3c(=O)c4cc5c(=O)n(*)c(=O)c5cc4c3=O)cn2)nc1` (repeat unit) the figure was 359.00 °C. With `*c1ccc(Sc2ccc(S(*)(=O)=O)cc2)cc1` (repeat unit) the figure was 215.00 °C; with `*c1ccc(Sc2ccc3c(c2)Sc2ccc(Sc4ccc(-n5c(=O)c6cc7c(=O)n(*)c(=O)c7cc6c5=O)cc4)cc2S3)cc1` (repeat unit), 254.8 °C; with `*c1ccc([Si](C)(C)[Si](*)(C)C)s1` (repeat unit), 15.00 °C. With `*c1ccc2c(c1)C(=O)N(c1cc(-c3ccc(O)c(N4C(=O)c5ccc(C(*)(C(F)(F)F)C(F)(F)F)cc5C4=O)c3)ccc1O)C2=O` (repeat unit) the figure was 370.00 °C; with `*c1ccc2c(c1)C(=O)N(c1cc(N3C(=O)c4ccc(C(*)(C(F)(F)F)C(F)(F)F)cc4C3=O)c(O)cc1O)C2=O` (repeat unit), 324.00 °C. Molecule `*c1ccc2c(c1)C(=O)N(c1ccc(-c3ccc(N4C(=O)c5ccc(C(*)(C(F)(F)F)C(F)(F)F)cc5C4=O)c(O)c3)cc1O)C2=O` (repeat unit) displayed a glass transition temperature of 358.00 °C. With `*c1ccc2c(c1)C(=O)N(c1ccc(-c3ccc(N4C(=O)c5ccc(C(*)(C(F)(F)F)C(F)(F)F)cc5C4=O)c(OCCCCCCOc4ccc(/C=C/c5ccc(F)cc5)cc4)c3)cc1OCCCCCCOc1ccc(/C=C/c3ccc(F)cc3)cc1)C2=O` (repeat unit) the figure was 140.00 °C; with `*c1ccc2c(c1)C(=O)N(c1ccc(C3(c4ccc(N5C(=O)c6ccc(C(*)(C(F)(F)F)C(F)(F)F)cc6C5=O)c(F)c4)c4ccccc4-c4ccccc43)cc1F)C2=O` (repeat unit), 352.00 °C; with `*c1ccc2c(c1)C(=O)N(c1ccc(N(c3ccc(/C=C/c4ccc([N+](=O)[O-])cc4)cc3)c3ccc(N4C(=O)c5ccc(C(*)(C(F)(F)F)C(F)(F)F)cc5C4=O)cc3)cc1)C2=O` (repeat unit), 290.00 °C. With `*c1ccc2c(c1)C(=O)N(c1ccc(N3C(=O)c4ccc(-c5c(-c6ccccc6)c(-c6ccccc6)c(-c6ccc(Oc7ccc(-c8c(-c9ccccc9)c(-c9ccccc9)c(*)c(-c9ccccc9)c8-c8ccccc8)cc7)cc6)c(-c6ccccc6)c5-c5ccccc5)cc4C3=O)cc1)C2=O` (repeat unit) the figure was 353.00 °C; with `*c1ccc2c(c1)C(=O)N(c1ccc(Oc3ccc(-c4ccc(Oc5ccc(N6C(=O)c7ccc(C(*)(C(F)(F)F)C(F)(F)F)cc7C6=O)cc5)cc4)cc3)cc1)C2=O` (repeat unit), 288.00 °C; with `*c1ccc2c(c1)C(=O)N(c1ccc(Oc3ccc(C(=O)c4cccc(C(=O)c5ccc(Oc6ccc(N7C(=O)c8ccc(C(*)(C(F)(F)F)C(F)(F)F)cc8C7=O)cc6C(F)(F)F)cc5)n4)cc3)c(C(F)(F)F)c1)C2=O` (repeat unit), 206.40 °C. With `*c1ccc2c(c1)C(=O)N(c1ccc(Oc3ccc(C(c4ccc(Oc5ccc(N6C(=O)c7ccc(C(*)(C(F)(F)F)C(F)(F)F)cc7C6=O)cc5C(F)(F)F)cc4)(C(F)(F)F)C(F)(F)F)cc3)c(C(F)(F)F)c1)C2=O` (repeat unit) the figure was 234.00 °C; with `*c1ccc2c(c1)C(=O)N(c1ccc(Oc3ccc(N4C(=O)c5ccc(C(*)(C(F)(F)F)C(F)(F)F)cc5C4=O)cc3Br)c(Br)c1)C2=O` (repeat unit), 299.00 °C; with `*c1ccc2c(c1)C(=O)N(c1ccc(Oc3ccc(N4C(=O)c5ccc(C(*)O)cc5C4=O)cc3)cc1)C2=O` (repeat unit), 250.00 °C. Molecule `*c1ccc2c(c1)C(=O)N(c1ccc(Oc3ccc(N4C(=O)c5ccc(C(F)(F)C(F)(F)C(*)(F)F)cc5C4=O)cc3)cc1)C2=O` (repeat unit) came in with a glass transition temperature of 222.00 °C.
